Measured values reported in patent publication US12473298B2, “Amide compounds, preparation method therefor, and use thereof in the medical field” (Shanghai Synergy Pharmaceutical Sciences Co., Ltd., priority 2019, dated 2025).
Structures can show the parent of a compound that is named as a salt. Where two headings read alike, the source gives them in different places.

Columns and labels:
[1] = Pharmacokinetic experiment in rats; format: in vivo, SD rats; settings: for AUC / Cmax / bioavailability: male, SD, rat; for AUC: read-out: Area Curve (AUC, ng/mL · h); for half-life: male, SD, rat, plasma; rats, Intravenous-Dose 4 mg/kg; read-out: Half life T1/2, h) (converted); for Cmax: read-out: Blood Drug level (Cmax, ng/mL)
Experimental: A certain amount of compound was weighted and dissolved in 0.1% Tween under vortex and ultrasound, and 0.5% carboxymethyl cellulose sodium (CMC-NA) solution was added to form a uniform solution.

[2] = test system: human diffuse large cell lymphoma B lymphocytes (Pfeiffer cell); test: Pfeiffer cell proliferation, Calcein AM staining; format: cell-based; settings: Homo sapiens, Pfeiffer
Excerpt: The diffuse large cell lymphoma B lymphocytes (Pfeiffer cells) were collected and counted when growing well.

[3] = test system: human diffuse large B-cell lymphoma cells (Karpas 422 cell); test: Karpas 422 cell proliferation, Calcein AM staining; format: cell-based; settings: Homo sapiens
[4] = plasma, rats, Intravenous-Dose 4 mg/kg
[5] = plasma, rats, Oral-Dose 20 mg/kg
[6] = plasma, rats, oral 20 mg/kg vs intravenous 4 mg/kg, read-out: Bioavailability (P %)
[7] = data of 14th day, read-out: Pfeiffer Proliferation IC50 Nanomoles per Liter
[8] = KARPAS-422, data of 14th day, read-out: Karpas422 Proliferation IC50 Nanomoles per Liter
[9] = KARPAS-422, read-out: Karpas422 Proliferation IC50 Nanomoles per Liter (nM)

AUC [1, 4] [ng·h/mL]	half-life [1] [h]	AUC [1, 5] [ng·h/mL]	Cmax [1, 5] [ng/mL]	bioavailability [1, 6] [%]	IC50 [2, 7] [nM]	IC50 [3, 8] [nM]	SMILES	further results
					1.85	2.53	CCN(c1cc(-c2ccc3c(c2)N(CCC(F)(F)F)CC32CCOCC2)cc(C(=O)NCc2c(C)cc(C)[nH]c2=O)c1C)C1CCOCC1 [Example 26, N-((4,6-dimethyl-2-oxo-1,2-dihydropyridin-3-yl)methyl)-3-(ethyl(tetrahydro-2H-pyran-4-yl)amino)-2-methyl-5-(1-(3,3,3-trifluoropropyl)-2′,3′,5′,6′-tetrahydrospiro[indoline-3,4′-pyran]-6-yl)benzamide]	
					3.1	4.92	CCN(c1cc(-c2ccc3c(c2)N(C)CC32CCN(C(=O)OC)CC2)cc(C(=O)NCc2c(C)cc(C)[nH]c2=O)c1C)C1CCOCC1 [Example 33, Methyl 6-(3-(((4,6-dimethyl-2-carbonyl-1,2-dihydropyridin-3-yl)methyl)carbamoyl)-5-(ethyl(tetrahydro-2H-pyran-4-yl)amino)-4-methylphenyl)-1-methylspiro[dihydroindole-3,4′-piperidine]-1′-carboxylate]	
					2.49	3.09	CCN(c1cc(-c2ccc3c(c2)N(C)CC32CCOCC2)cc(C(=O)NCc2c(OC)cc(C)[nH]c2=O)c1C)C1CCN(CC(F)(F)F)CC1 [Example 40, 3-(ethyl(1-(2,2,2-trifluoroethyl)piperidin-4-yl)amino)-N-((4-methoxy-6-methyl-2-carbonyl-1,2-dihydropyridin-3-yl)methyl)-2-methyl-5-(1-methyl-2′,3′,5′,6′-tetrahydrospiro[dihydroindole-3,4′-pyran]-6-yl)benzamide]	
997	1.31	1300	598	26.2			CCN(c1cc(-c2ccc3c(c2)N(C(C)C)CC32CCOCC2)c(Cl)c(C(=O)NCc2c(OC)cc(C)[nH]c2=O)c1C)C1CCOCC1 [Example 49, 2-chloro-5-(ethyl(tetrahydro-2H-pyran-4-yl)amino)-3-(1-isopropyl-2,3,5,6-tetrahydrospiro[dihydroindole-3,4-pyran]-6-yl)-N-((4-methoxy-6-methyl-2-oxo-1,2-dihydropyridin-3-yl)methyl)-6-methylbenzamide]	
					1.87	3.67	CCN1CC2(CCOCC2)c2ccc(-c3cc(N(CC)C4CCOCC4)c(C)c(C(=O)NCc4c(C)cc(C)[nH]c4=O)c3Cl)cc21 [Example 54, 2-chloro-N-((4,6-dimethyl-2-carbonyl-1,2-dihydropyridin-3-yl)methyl)-5-(ethyl(tetrahydro-2H-pyran-4-yl)amino)-3-(1-ethyl-2′,3′,5′,6′-tetrahydrospiro[dihydroindole-3,4′-pyran]-6-yl)-6-methylbenzamide]	
					1.97	3.35	CCCN1CC2(CCOCC2)c2ccc(-c3cc(N(CC)C4CCOCC4)c(C)c(C(=O)NCc4c(C)cc(C)[nH]c4=O)c3F)cc21 [Example 59, N-((4,6-dimethyl-2-carbonyl-1,2-dihydropyridin-3-yl)methyl)-3-(ethyl(tetrahydro-2H-pyran-4-yl)amino)-6-fluoro-2-methyl-5-(1-propyl-2′,3′,5′,6′-tetrahydrospiro[dihydroindole-3,4′-pyran]-6-yl)benzamide]	
					0.87		CCN(c1cc(-c2ccc3c(c2)N(C(=O)C(F)(F)F)CC32CCOCC2)cc(C(=O)NCc2c(C)cc(C)[nH]c2=O)c1C)C1CCOCC1 [Example 75, 5-(1-trifluoroacetyl-2′,3′,5′,6′-tetrahydrospiro[dihydroindole-3,4′-pyran]-6-yl)-N-((4,6-dimethyl-2-carbonyl-1,2-dihydropyridin-3-yl)methyl)-3-(ethyl(tetrahydro-2H-pyran-4-yl)amino)-2-methylbenzamide]	
948	1.15	1570	415	33.1			CCN(c1cc(-c2ccc3c(c2)NC(=O)C32CCOCC2)cc(C(=O)NCc2c(OC)cc(C)[nH]c2=O)c1C)C1CCOCC1 [Example 115, 3-(Ethyl(tetrahydro-2H-pyran-4-yl)amino)-N-((4-methoxy-6-methyl-2-oxo-1,2-dihydropyridin-3-yl)methyl)-2-methyl-5-(2-oxo-2′,3′,5′,6′-tetrahydrospiro[dihydroindole-3,4′-pyran]-6-yl)benzamide]	

Second part, the molecule before the results:

SMILES	AUC [1, 4] [ng·h/mL]	half-life [1] [h]	AUC [1, 5] [ng·h/mL]	Cmax [1, 5] [ng/mL]	bioavailability [1, 6] [%]	IC50 [2, 7] [nM]	IC50 [3, 8] [nM]	further results
CCN(c1cc(-c2ccc3c(c2)NC(=O)C32CCOCC2)cc(C(=O)NCc2c(OC)cc(C)[nH]c2=O)c1C)C1CCNCC1 [Example 3, 3-(ethyl(piperidin-4-yl)amino)-N-((4-methoxy-6-methyl-2-oxo-1,2-dihydropyridin-3-yl)methyl)-2-methyl-5-(2-oxo-2′,3′,5′,6′-tetrahydrospiro[dihydroindole-3,4′-pyran]-6-yl)benzamide]	948	1.15	1570	415	33.1			
CCN(c1cc(-c2cc3c(cc2F)CCC32CCOCC2)cc(C(=O)NCc2c(OC)cc(C)[nH]c2=O)c1C)C1CCOCC1 [Example 16, 3-(ethyl(tetrahydro-2H-pyran-4-yl)amino)-5-(5-fluoro-2,2′,3,3′,5′,6′-hexahydrospiro[indene-1,4′-pyran]-6-yl)-N-((4-methoxy-6-methyl-2-carbonyl-1,2-dihydropyridin-3-yl)methyl)-2-methylbenzamide]	956	1.42	1310	480	27.4			
CCN1C(=O)C2(CCOCC2)c2ccc(-c3cc(C(=O)NCc4c(C)cc(C)[nH]c4=O)c(C)c(N(CC)C4CCOCC4)c3)cc21 [Example 18, N-((4,6-dimethyl-2-carbonyl-1,2-dihydropyridin-3-yl)methyl)-3-(ethyl(tetrahydro-2H-pyran-4-yl)amino)-5-(1-ethyl-2-carbonyl-2′,3′,5′,6′-tetrahydrospiro[dihydroindole-3,4′-pyran]-6-yl)-2-methylbenzamide]	932	1.35	1190	472	25.5			
CCN(c1cc(-c2ccc3c(c2)N(CC(F)(F)F)CC32CCOCC2)cc(C(=O)NCc2c(C)cc(C)[nH]c2=O)c1C)C1CCOCC1 [Example 20, N-((4,6-dimethyl-2-carbonyl-1,2-dihydropyridin-3-yl)methyl)-3-(ethyl(tetrahydro-2H-pyran-4-yl)amino)-2-methyl-5-(1-(2,2,2-trifluoroethyl)-2′,3′,5′,6′-tetrahydrospiro[dihydroindole-3,4′-pyran]-6-yl)benzamide]						2.32	3.03	
CCN1C(=O)C2(CCOCC2)c2ccc(-c3cc(N(CC)C4CCOCC4)c(C)c(C(=O)NCc4c(C)cc(C)[nH]c4=O)c3Cl)cc21 [Example 48, 2-chloro-N-((4,6-dimethyl-2-oxo-1,2-dihydropyridin-3-yl)methyl)-5-(ethyl(tetrahydro-2H-pyran-4-yl)amino)-3-(1-ethyl-2-oxo-2′,3′,5′,6′-tetrahydrospiro[dihydroindole-3,4′-pyran]-6-yl)-6-methylbenzamide]								IC50 ([2]; read-out: Pfeiffer Proliferation IC50 Nanomoles per Liter (nM)): 1.42 nM; IC50 [3, 9]: 1.99 nM
CCN(c1cc(-c2ccc3c(c2)C2(CC3)CC(C)N(CC)C(C)C2)cc(C(=O)NCc2c(OC)cc(C)[nH]c2=O)c1C)C1CCOCC1 (stereo not drawn) [Example 50, 3-(ethyl(tetrahydro-2H-pyran-4-yl)amino)-5-(1′-ethyl-2′,6′-dimethyl-2,3-dihydrospiro[indene-1,4′-piperidine]-6-yl)-N-((4-methoxy-6-methyl-2-oxo-1,2-dihydropyridin-3-yl)methyl)-2-methylbenzamide formate]	954	1.34	1350	448	28.2			IC50 [3, 9]: 1.08 nM
CCN(c1cc(-c2ccc3c(c2)N(C)C(=O)C32CCN(C(C)C)CC2)c(F)c(C(=O)NCc2c(C)cc(C)[nH]c2=O)c1C)C1CCOCC1 [Example 61, N-((4,6-dimethyl-2-oxo-1,2-dihydropyridin-3-yl)methyl)-3-(ethyl(tetrahydro-2H-pyran-4-yl)amino)-6-fluoro-5-(1′-isopropyl-1-methyl-2-oxospiro[dihydroindole-3,4′-piperidine]-6-yl)-2-methylbenzamide]	932	1.72	1250	426	26.8			
CCN(c1cc(-c2ccc3c(c2)N(C(C)C)C(=O)C32CCOCC2)cc(C(=O)NCc2c(OC)cc(C)[nH]c2=O)c1C)C1CCOC(C)(C)C1 (stereo not drawn) [Example 64, 3-((2,2-dimethyltetrahydro-2H-pyran-4-yl)(ethyl)amino)-5-(1-isopropyl-2-carbonyl-2′,3′,5′,6′-tetrahydrospiro[dihydroindole-3,4′-pyran]-6-yl)-N-((4-methoxy-6-methyl-2-carbonyl-1,2-dihydropyridin-3-yl)methyl)-2-methylbenzamide]								IC50 [3, 9]: 0.81 nM
CCN(c1cc(-c2ccc3c(c2)NC(=O)C32CCNCC2)cc(C(=O)NCc2c(OC)cc(C)[nH]c2=O)c1C)C1CCNCC1 [Example 116, 3-(Ethyl(piperidin-4-yl)amino)-N-((4-methoxy-6-methyl-2-oxo-1,2-dihydropyridin-3-yl)methyl)-2-methyl-5-(2-oxospiro[indole-3,4′-piperidine]-6-yl)benzamide]	912	1.05	1570	453				bioavailability ([1]; in vivo, po, 20 mg/kg): 34.3%
